Patent US20260355199A1, “COMPOSITIONS AND METHODS FOR TREATING OR PREVENTING NONALCOHOLIC STEATOHEPATITIS (NASH), ANOREXIA, DEPRESSION, ENDOMETRIOSIS, AND OTHER DISEASES OR DISORDERS” (priority 2022, published 2026)
Entries after “also recorded” stand apart in the source; their conditions may differ.

How the values were obtained:
[1] = tested on: TET3 mRNA; assay: TET3 mRNA in THP-1 cells; type: cell-based, human; conditions: THP-1, 10 μM, 24 h
Protocol: Bobcat339 Treatment of Cultured Cells Bobcat339 powder (Sigma-Aldrich, SML2611) was freshly dissolved in DMSO at a concentration of 5 mM and filtered through a 0.22 micron. Cells grown at a density of 80-90% were incubated in growth media with vehicle (DMSO) or Bobcat339 at a final concentration of 10 μM for 24 h, followed by RNA and protein extraction.
(§1) Total RNAs were extracted from cells using PureLink RNA Mini Kit. 0.5-1 μg total RNA was reverse transcribed to cDNA in a reaction volume of 20 μL using PrimeScript RT Reagent Kit. Real-time quantitative PCR was performed in a 15 μL reaction volume containing 0.5-1 μL of cDNA using SsoAdvanced Universal SYBR Green Supermix in a Bio-Rad iCycler. Gene expression levels were normalized against RPLP0.

[2] = Liver toxicity (plasma ALT, AST, bilirubin) in endometriosis mice; type: in vivo, mouse; conditions: 6 weeks; for liver toxicity (plasma ALT, AST, bilirubin): 2.5 mg/kg i.p. once a week
Protocol: Blood samples were collected in EDTA tubes (Microtainer with K2EDTA, BD, 365974) by cardiac puncture of terminally anesthetized animals. The tubes were centrifuged at 2,000×g at 4 °C for 20 min, and plasma was collected and stored at −80 °C until use. Blood chemistry were measured according to the manufacturer's instructions. Kits used to measure alanine transaminase (EALT-100) and aspartate transaminase (EASTR-100) were purchased from Bioassay Systems. The bilirubin assay kit (MAK126) was purchased from Sigma Aldrich.

[3] = tested on: Tet3 mRNA; assay: Tet3 mRNA (RT-qPCR) in GT1-7 cells; type: cell-based, mouse; conditions: 10 μM, 6 h
Protocol: For Bobcat339 treatment (FIG. 15A and FIG. 15B), GT1-7 cells grown in 24-well plates at 2×10^5 cells/well were incubated with vehicle or Bobcat339 at a final concentration of 10 μM for 6 h, followed by RNA and protein extractions. For TET3 protein stability assay (FIG. 15B), GT1-7 cells in 24-well plates at 2×10^5 cells/well were incubated with vehicle or Bobcat339 at a final concentration of 10 μM for 3 hours, followed by addition of cycloheximide (CHX, Cell Signaling, 2112) at a final concentration of […] in the presence of 10 μM of Bobcat339. Proteins were harvested at 0, 1, 2, and 3 hours after addition of CHX. For TET3 expression restoration experiments (FIG. 15C and FIG. 15D), GT1-7 or SH-SY5Y cells seeded in 24-well plates at 2×10^5 cells/well were infected with Ad-GFP or Ad-TET3 at 4000 gc/cell. Following 16 h of infection, vehicle or Bobcat339 were added at a final concentration of 10 μM. Protein and RNA were isolated 48 h later and analyzed.
Total RNAs were extracted from neuronal cells or homogenized hypothalamic arcuate nucleus tissue samples using PureLink RNA Mini Kit (Ambion, 12183025). cDNA was synthesized using PrimeScript RT Reagent Kit in a 20 μl reaction containing 0.5-1 μg of total RNA. Real-time quantitative PCR was performed in a 15 μl reaction containing 0.5-1 μl of cDNA using SsoAdvanced Universal SYBR Green Supermix in a Bio-Rad iCycler. […]

[4] = tested on: MDMs; assay: TUNEL assay in human MDMs; type: cell-based; conditions: 10 μM, 48 h
Protocol: For TET3 expression restoration experiments, cells seeded in 24-well plates were infected with Ad-GFP or Ad-TET3 at 4000 gc/cell. Following 16 h of infection, vehicle or Bobcat339 were added at a final concentration of 10 μM. Protein and RNA were isolated 48 hours later and analyzed.
These were performed using the In Situ Cell Death Detection Kit (Sigma Aldrich, 12156792910). Briefly, cells were fixed with 4% paraformaldehyde in PBS for 1 h at RT and rinsed with PBS, followed by permeabilization with 0.1% Triton X-100 in 0.1% sodium citrate for 2 min on ice. TUNEL reaction mixture was added and incubation was carried out at 37 °C for 60 min. DAPI was added to counter-stain the cells for 1 min. The slides were coverslipped and scoped using a Keyence BZ-X700 fluorescence microscope.

[5] = tested on: Lin28; assay: Lin28 expression in mouse peritoneal macrophages; type: cell-based; conditions: 10 μM, 48 h
Protocol: For cultured mouse peritoneal macrophages, cells were primed with 30 ng/ml of TGF-β1 (R&D Systems, 7666-MB0-005) for 48 h (to increase TET3 expression) before Bobcat339 treatment. Bobcat339 (or DMSO) was added at a final concentration of 10 μM, followed by RNA and protein extraction at time points indicated in the figure legends.
as §1

[6] = tested on: TET3; assay: TET3 protein in the ARC of mice (immunofluorescence); type: in vivo, mouse
Protocol: To test whether Bobcat339 affects TET3 protein expression in AgRP neurons, Agrp-IRES-Cre::LSL-Cas9-GFP mice with GFP expression specifically in AgRP neurons were intraperitoneally injected with vehicle or Bobcat339 at 2.5 mg/kg, followed by isolation of ARCs under fed conditions (9:00-11:00) two days later. This dose was chosen based on the dose response studies. TET2 expression was widespread but was negligible in AgRP neurons.
Bobcat339 powder (Sigma-Aldrich, SML2611) was freshly dissolved in DMSO (vehicle) at a concentration of 50 mg/mL and filtered through a 0.22 micron. It was further diluted with 1×PBS to a final concentration of 0.5 mg/mL before injections. Mice were injected intraperitoneally with Bobcat339 at 1 mg/kg, 2.5 mg/kg, or 4 mg/kg.
The immunofluorescence for brain slices was conducted using previous methods (18). In brief, postfixed sections were cut into 40-μm-thick sections, followed by 5 times washing. Then the sections were incubated in blocking solution for 20 minutes and incubated with anti-TET3 (dilution 1:2000; Millipore Sigma, ABE290), anti-TET2 (dilution 1:500; Proteintech, 21207-1-AP), anti-AGRP (dilution 1:400; H-003-57, Phoenix Pharmaceuticals), anti-NPY (dilution 1:800, Cell Signaling Technology, 11976S), anti-VGAT (dilution 1:200; Abcam, Ab23592), or anti-FOS (dilution 1:1000; Biosensis, R-1751-050) overnight at 4 °C. Negative controls were performed by omitting the respective primary antibodies. The next day, sections were washed 5 times and incubated in 0.4% Triton x-100 PBS with the secondary antibody donkey anti-Rabbit IgG Fluor 594 (dilution 1:500; A-21207, Invitrogen) for 2 h at RT. The sections were coverslipped and scoped using a Keyence BZ-X700 fluorescence microscope. The fluorescence signals from GFP in AgRP neurons were detected without immunostaining.

Compound: Nc1nc(=O)n(-c2cccc(-c3ccccc3)c2)cc1Cl [Bobcat339, 4-Amino-1-[1,1′-biphenyl]-3-yl-5-chloro-2(1H)-pyrimidinone]
- TET3 mRNA [1]: no significant difference in expression between the groups
- liver toxicity (plasma ALT, AST, bilirubin) [2]: no evidence of liver toxicity; also recorded: no differences between the groups
- liver toxicity (plasma ALT, AST, bilirubin) ([2]; listed as Bobcat): no differences between the groups
- liver toxicity ([2]; 3 mg/kg i.p. once a week): no evidence of liver toxicity
- Tet3 mRNA abundance [3]: without affecting its mRNA abundance; also recorded: without altering its mRNA abundance; also recorded: no significant difference between the two groups
- apoptosis (TUNEL) [4]: increased apoptosis; also recorded: induced apoptosis; also recorded: a significant increase in pyroptotic cell death
- apoptosis (TUNEL / Caspase-1) ([4]; with Ad-TET3): abolished when TET3 protein was restored to control levels; also recorded: not seen when TET3 expression level was restored
- Lin28 expression [5]: decreased
- TET3-positive AgRP neurons ([6]; 2.5 mg/kg i.p., two days): a clear decrease in the number of TET3-positive AgRP neurons; also recorded: decreased TET3 protein in AgRP neurons; also recorded: inhibited TET3 expression in AgRP neurons
- TET3 protein in non-AgRP cells ([6]; decrease limited to the tip regions of the ARC even at 4 mg/kg): decreased TET3 protein in non-AgRP cells
- onset of TET3 decrease in AgRP neurons and neuron activation ([6]; following exposure to Bobcat339): as early as three days
